Assay results from article PMC8824312 (Bioorganic chemistry, 2021).
Read-outs that look alike come from different tables or passages of the source. Blank lines part the entries; values can stand above or below the molecule they belong to.

What was measured:
[1] = biological target: T1, Salicylate hydroxylase (NahG) (Pseudomonas putida, UniProt P23262); assay: fluorometric titration
T1 sequence (P23262 1-434): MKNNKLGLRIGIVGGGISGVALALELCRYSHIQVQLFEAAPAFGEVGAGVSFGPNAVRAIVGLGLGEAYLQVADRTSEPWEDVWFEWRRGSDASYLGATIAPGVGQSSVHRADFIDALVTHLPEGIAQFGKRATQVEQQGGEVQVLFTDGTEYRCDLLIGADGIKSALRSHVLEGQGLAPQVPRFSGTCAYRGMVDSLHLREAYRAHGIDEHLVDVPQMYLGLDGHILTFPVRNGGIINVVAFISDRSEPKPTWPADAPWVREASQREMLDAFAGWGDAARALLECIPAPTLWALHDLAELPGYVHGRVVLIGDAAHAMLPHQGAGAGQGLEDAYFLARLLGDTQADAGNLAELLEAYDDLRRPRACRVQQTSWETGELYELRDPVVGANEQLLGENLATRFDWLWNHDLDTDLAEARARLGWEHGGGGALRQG

[2] = biological target: T1, Salicylate hydroxylase (NahG); assay: fluorometric titration; format: binding
[3] = substrate: NC(=O)C1=CN([C@@H]2O[C@H](COP(=O)(O)OP(=O)(O)OC[C@H]3O[C@@H](n4cnc5c(N)ncnc54)[C@H](O)[C@@H]3O)[C@@H](O)[C@H]2O)C=CC1; assay: initial rate of NADH consumption, spectrophotometric; format: biochemical, Pseudomonas putida; conditions: pH 8.5, I = 0.21 M (NaCl), 25 °C, salicylate, FAD as cofactor

Kd [1]: 2.2 ± 0.2 µM
Molecule: Cc1cc2nc3c(=O)[nH]c(=O)nc-3n(C[C@H](O)[C@H](O)[C@H](O)COP(=O)(O)O)c2cc1C [riboflavin 5′-monophosphate]

Kd [2]: 0.28 ± 0.03 µM
Molecule: O=C(O)c1ccccc1O [salicylate]

Further lines, the molecule ahead of its results:

Molecule: Cc1cc2nc3c(=O)[nH]c(=O)nc-3n(C[C@H](O)[C@H](O)[C@H](O)COP(=O)(O)OP(=O)(O)OC[C@H]3O[C@@H](n4cnc5c(N)ncnc54)[C@H](O)[C@@H]3O)c2cc1C [Flavin adenine dinucleotide]
Kd [1]: 0.036 ± 0.008 µM

B1: Salicylate hydroxylase (NahG) (Pseudomonas putida) (protein)
chain: T1 sequence (P23262 1-434)
Km [3]: 27 µM
